Experimental findings from ChEMBL document CHEMBL1147201, “Structural requirements of HDAC inhibitors: SAHA analogs functionalized adjacent to the hydroxamic acid” (Bioorg Med Chem Lett, 2007) are described below.

This test concerns the target Histone deacetylase. As to the kind of experiment: Inhibition of HDAC by fluorescent assay. The class given is protein assay, Homo sapiens.

Molecules are shown by their SMILES.

As to `CCC(CCCCCC(=O)Nc1ccccc1)C(=O)NO` (configuration not stated), the IC50 is 449 µM.

In turn, `C=CCC(CCCCCC(=O)Nc1ccccc1)C(=O)NO` (configuration not stated) displayed an IC50 of 144 µM.

On to `O=C(CCCCCC(Cc1ccccc1)C(=O)NO)Nc1ccccc1` (configuration not stated), for which the IC50 was determined as 226 µM.

As to `CCCCC(CCCCCC(=O)Nc1ccccc1)C(=O)NO` (configuration not stated), the IC50 worked out at 72 µM.

Regarding `C#CCC(CCCCCC(=O)Nc1ccccc1)C(=O)NO` (configuration not stated), the IC50 was 87 µM.

Molecule `CCCC(CCCCCC(=O)Nc1ccccc1)C(=O)NO` (configuration not stated) registered an IC50 of 154 µM.

In turn, `CC(CCCCCC(=O)Nc1ccccc1)C(=O)NO` (configuration not stated) had an IC50 of 134 µM.
